Assay results taken from patent US20160150782A1, “USE OF SELECTED PYRIDONE CARBOXAMIDES OR SALTS THEREOF AS ACTIVE SUBSTANCES AGAINST ABIOTIC PLANT STRESS” (BAYER CROPSCIENCE AKTIENGESELLSCHAFT, priority 2013, published 2016).

How the values were obtained:
Triticum aestivum = experiment: Drought stress test on sprayed greenhouse plants, visual damage scoring (Table 4); assay type: in vivo; conditions: efficacy = reduction in damage intensity, dosage 250 g/ha, spray WP, 600 l/ha water
Experimental: Seeds of monocotyledonous and dicotyledonous crop plants are sown in sandy loam in plastic or wood-fiber pots, covered with soil or sand and cultivated in a greenhouse under good growth conditions. The test plants are treated at the early leaf stage (BBCH10-BBCH13). To assure uniform water supply before commencement of stress, the potted plants are supplied with water by dam irrigation prior to substance application. The inventive compounds, formulated in the form of wettable powders (WP), are sprayed onto the green parts of the plants as an aqueous suspension at an equivalent water application rate of 600 I/ha with addition of 0.2% wetting agent (e.g. agrotin). Substance application is followed immediately by stress treatment of the plants. For this purpose, the wood-fiber pots are transferred in plastic inserts in order to prevent them from subsequently drying out too quickly. Drought stress is induced by gradual drying out under the following conditions: “Day”: 14 hours with illumination at 26-30° C. “Night”: 10 hours without illumination at 18-20° C. The duration of the respective stress phases is guided mainly by the condition of the stressed control plants. […] The end of the stress phase is followed by an approx. 4-14-day recovery phase, during which the plants are once again kept under good growth conditions in a greenhouse. The duration of the recovery phase is guided mainly by when the trial plants have attained a state which enables visual scoring of potential effects, and is therefore variable. […] The damage intensity is at first assessed in percent.

Zea mays (corn) = experiment: Cold stress test on sprayed greenhouse plants, visual damage scoring (Table 1); assay type: in vivo; conditions: efficacy = reduction in damage intensity, dosage 10 g/ha, spray WP, 600 l/ha water
Experimental: Seeds of monocotyledonous and dicotyledonous crop plants are sown in sandy loam in plastic or wood-fiber pots, covered with soil or sand and cultivated in a greenhouse under good growth conditions. The test plants are treated at the early leaf stage (BBCH10-BBCH13). To assure uniform water supply before commencement of stress, the potted plants are supplied with water by dam irrigation prior to substance application.
The inventive compounds, formulated in the form of wettable powders (WP), are sprayed onto the green parts of the plants as an aqueous suspension at an equivalent water application rate of 600 I/ha with addition of 0.2% wetting agent (e.g. agrotin). Substance application is followed immediately by stress treatment of the plants. For this purpose, the wood-fiber pots are transferred in plastic inserts in order to prevent them from subsequently drying out too quickly.
The duration of the respective stress phases is guided mainly by the condition of the stressed control plants. It is ended (by re-irrigating and transfer to a greenhouse with good growth conditions) as soon as irreversible damage is observed on the stressed control plants.
The end of the stress phase is followed by an approx. 4-14-day recovery phase, during which the plants are once again kept under good growth conditions in a greenhouse. The duration of the recovery phase is guided mainly by when the trial plants have attained a state which enables visual scoring of potential effects, and is therefore variable.
Once this juncture has been reached, the intensities of damage are scored visually in comparison to untreated, unstressed controls of the same age. The damage intensity is at first assessed in percent. These values are then used to calculate the efficacy of the test compounds by the following formula:
[formula] • E: Efficacy=reduction in damage intensity as a result of treatment with test substance • DIs: Damage intensity of the stressed control plants • DIt: Damage intensity of the plants treated with test compound […]

## Cc1cc(C(=O)NCCO)c(=O)[nH]c1C(F)(F)C(F)(F)F [compound 265]
Triticum aestivum
  E (TRZAS): >5
Zea mays (corn)
  E:E (ZEAMX): >5
